Reference: the SangsterLogP compilation

How the values were obtained:
[1] = not given; remark: listed apart in the source
[2] = method code SF-HPLC, from DOI: 10.1016/j.ejps.2012.04.024, PMID: 22609526
[3] = method code SF-AS, from PMID: 872227; conditions: pH 7.2
[4] = not given; remark: listed apart in the source
[5] = method code SF-AS, from DOI: 10.1002/ardp.19853180604, PMID: 4026543; conditions: pH 7.4
[6] = method code SF-RC, from DOI: 10.1016/0361-9230(85)90153-4, PMID: 2413968
[7] = method code SF-HPLC, from Thijssen, W. (1981). The relationship between Log P, Rm, log k' and the constants pi and f: a study on penicillins. Eur J Med Chem, 16(5)449-452.
[8] = not given; remark: listed apart in the source
[9] = not given; remark: listed apart in the source
[10] = method code SF-HPLC, from DOI: 10.1023/a:1016359301852, PMID: 24271710
[11] = not given; remark: listed apart in the source
[12] = method code SF-AS, from DOI: 10.1016/j.bmc.2004.10.037, PMID: 15653345
[13] = method code SF-HPLC, from DOI: 10.1248/cpb.47.1081, PMID: 10478463; conditions: pH 6.5
[14] = method code SF-HPLC, from DOI: 10.1016/j.ejmech.2003.12.002, PMID: 15051170
[15] = not given; remark: listed apart in the source
[16] = not given; remark: listed apart in the source
[17] = not given; remark: listed apart in the source
[18] = method code SF-AS, from DOI: 10.3109/03639048709068705
[19] = from Jayashree, Bs.; Sahu, A.; MM, S.; Venugopala, K. (2006). Synthesis, characterization and determination of partition coefficient of some triazolo thiadiazinyl chlorocoumarin derivatives for their …; conditions: pH 7.4

CCN(CC)CCC(=O)NC1c2ccccc2Oc2c(C)cccc21 (stereo not given) showed a logP of 3.55.

Work on COc1cc(C=Cc2cccnc2)ccc1C=Cc1cccnc1 yielded a logP [1] of 4.32.

For O=C(OC[C@H]1O[C@@H](Oc2c(-c3ccc(O)c(O)c3)oc3cc(O)cc(O)c3c2=O)[C@H](O)[C@@H](O)[C@H]1O)c1cc(O)c(O)c(O)c1, the logP [2] was -0.97.

CCCCCOc1ccc(NC(=O)OCCN2CCOCC2)c(C)c1 showed a logD [3] of 3.38.

C[C@]12C=CC(=O)C=C1CC[C@@H]1[C@@H]2C(=O)C[C@@]2(C)[C@H]1CC[C@]2(O)C(=O)CO gave a logP [4] of 1.6.

COC(=O)C1=C(C)NC(C)=C(C(=O)OC(C)C)[C@H]1c1cccc2nonc12 gave a logP [4] of 3.75.

Compound Cc1nc2ccccc2c(=O)n1N=C1SCC(=O)N1c1ccccc1 has a logD [5] of -1.06.

CSCC[C@H](NC(=O)[C@H](CC(C)C)NC(=O)CNC(=O)[C@H](Cc1ccccc1)NC(=O)[C@H](Cc1ccccc1)NC(=O)[C@H](CCC(N)=O)NC(=O)[C@H](CCC(N)=O)NC(=O)[C@@H]1CCCN1C(=O)[C@H](CCCCN)NC(=O)[C@@H]1CCCN1C(=O)[C@@H](N)CCCN=C(N)N)C(N)=O showed a logP [6] of -0.56.

In the case of Cc1onc(-c2ccccc2Cl)c1C(=O)NC1C(=O)N2C1S(=O)C(C)(C)C2C(=O)O (stereo not given), the logP [7] is reported as 2.

Compound CC(C)NCC(COc1cccc2ccccc12)OC(=O)c1ccc([N+](=O)[O-])cc1 (stereo not given) has a logP [8] of 5.97.

With CNc1ccc(-c2ccc3cc(OCC(O)CF)ccc3n2)cc1 (stereo not given) the logP [9] was 2.32.

C#C[C@]1(O)CC[C@H]2[C@@H]3CCC4=CC(=O)CC[C@@H]4[C@H]3CC[C@@]21C gave a logP [10] of 2.97.

Compound Cc1nc2ccccc2c(=O)n1N=C1SCC(=O)N1c1ccc(Br)cc1 has a logD [5] of -1.26.

Work on Cc1ccccc1OCC(O)CNCC(O)COc1ccccc1C (stereo not given) yielded a logP [11] of 3.67.

With CCN(CC)CCC(=O)NC1c2ccccc2Sc2c(C)cccc21 (stereo not given) the logP was 4.1.

With CCOC(=O)N1CCN(Cc2ccc(O)c3ncccc23)CC1 the logP [12] was 1.57.

With CON=C(C(=O)NC1C(=O)N2C(C(=O)OC(C)OC(C)=O)=CCSC12)c1csc(N)n1 (stereo not given) the logD [13] was 0.46.

Work on COC(=O)C(C)NP(=O)(OCC1C=CC(n2cc(C)c(=O)[nH]c2=O)O1)Oc1c(OC)cccc1OC (stereo not given) yielded a logP [14] of 0.4.

In the case of Cc1nc2ccccc2c(=O)n1N=C1SCC(=O)N1c1ccc(Cl)cc1, the logD [5] is reported as -1.6.

For CCNC(=O)[C@@H]1CCCN1C(=O)[C@H](CCCN=C(N)N)NC(=O)[C@H](CC(C)C)NC(=O)[C@@H](COC(C)(C)C)NC(=O)[C@H](Cc1ccc(O)cc1)NC(=O)[C@H](CO)NC(=O)[C@H](Cc1c[nH]c2ccccc12)NC(=O)[C@H](Cc1cnc[nH]1)NC(=O)[C@@H]1CCC(=O)N1, the logP [6] was -1.35.

Compound C#CCN1CCN(Cc2ccc(O)c3ncccc23)CC1 has a logP [12] of 1.79.

In the case of O=C(O)[C@H]1O[C@@H](Oc2c(-c3ccc(O)c(O)c3)oc3cc(O)cc(O)c3c2=O)[C@H](O)[C@@H](O)[C@@H]1O, the logP [2] is reported as 0.79.

Work on CN(CCF)c1ccc2cc(CC=C(C#N)C#N)ccc2c1 yielded a logP [9] of 3.71.

In the case of CC(C)N(CCC(CCC1CCCCC1)(C(N)=O)c1ccccc1Cl)C(C)C (stereo not given), the logP [15] is reported as 4.23.

For CC(=O)N(CC(O)CO)c1c(I)c(C(=O)NCC(O)CO)c(I)c(C(=O)NCC(O)CO)c1I (stereo not given), the logP [16] was -3.08.

Cc1cn(C2CC(N=[N+]=[N-])C(COC(=O)C(=O)NC(CC(C)C)C(=O)O)O2)c(=O)[nH]c1=O (stereo not given) showed a logP [17] of 1.12.

For CC(=O)OC(CNC(C)C)COc1cccc2ccccc12 (stereo not given), the logP [8] was 4.34.

With CON=C(C(=O)NC1C(=O)N2C(C(=O)OC(C)OC(=O)OC3CCCCC3)=CCSC12)c1csc(N)n1 (stereo not given) the logD [13] was 2.52.

Cc1cn(C2CC(N=[N+]=[N-])C(COC(=O)C(=O)NC(C(=O)O)C(C)C)O2)c(=O)[nH]c1=O (stereo not given) showed a logP [17] of 0.68.

Compound O=[N+]([O-])c1ccc(OCC(O)CNCC(O)COc2ccccc2)cc1 (stereo not given) has a logP [11] of 2.62.

Compound Cc1cccc2c1Sc1ccccc1C2NC(=O)CCN(C)C (stereo not given) has a logP of 3.06.

In the case of CCC(=O)OC(CNC(C)C)COc1cccc2ccccc12 (stereo not given), the logP [18] is reported as 4.99.

Work on C(=Cc1cccnc1)c1ccc(C=Cc2cccnc2)cc1 yielded a logP [1] of 3.73.

Work on CCCCCC(=O)OC(CNC(C)C)COc1cccc2ccccc12 (stereo not given) yielded a logP [18] of 6.85.

Compound O=c1oc2ccc(Cl)cc2cc1C1=Nn2c(nnc2-c2cccc(Br)c2)SC1 has a logD [19] of 1.53.
